A word on the EC50: it is the midpoint of the concentration-response curve.

The values that follow come from patent US20120252721A1 (priority 2011, published 2012).

For experiment [1], the system named is HCV genotype 3a NS5A within the 1b-replicon. Nature of the experiment: Luciferase replicon assay, NS5A-intergenotypic stable cell line genotype 3a. The format is cell-based. The settings on record: Hepatitis C virus, read-out: EC50 3a. The method in brief: (§1)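 Stable cured-Huh7 lines carry a 1b luciferase replicon with genotype 3a or 4a NS5A, selected with G418. Cells were treated with ten 5-fold compound dilutions for 72 h at 37 °C. Replication was read as luciferase signal, and EC50 was fitted from dose-response curves.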
Background: A replicon is a self-replicating genome or part of one, used to study replication in cells.

The subject of experiment [2] is HCV genotype 4a NS5A within the 1b-replicon. The experiment is described as follows: Luciferase replicon assay, NS5A-intergenotypic stable cell line genotype 4a. The format is cell-based. The conditions noted are these: Hepatitis C virus, read-out: EC50 4a. The method in brief: as §1

Bounds are passed on as bounds.

As to `COC(=O)N[C@H](C(=O)N1CCC[C@H]1c1ncc(-c2ccc(-c3csc4c(-c5cnc([C@@H]6CCCN6C(=O)[C@@H](NC(=O)OC)C(C)C)[nH]5)csc34)cc2)[nH]1)C(C)C` [Compound A15, [(S)-1-((S)-2-{4-[4-(6-{2-[(S)-1-((S)-2-methoxycarbonylamino-3-methyl-butyryl)-pyrrolidin-2-yl]-3H-imidazol-4-yl}-thieno[3,2-b]thiophen-3-yl)-phenyl]-1H-imidazol-2-yl}-pyrrolidine-1-carbonyl)-2-methyl-propyl]-carbamic acid methyl ester], the EC50 in experiment [1] was 0.1 to 1 nM; in experiment [2] it was under 0.1 nM.
